Data taken from ChEMBL document CHEMBL5465560, “Selectivity Literature for EUbOPEN Chemogenomic Library” (2024).
Positions count from the first letter of the chain named.

What was measured:
Details in all cases: at 10 µM
[1] = molecular target: Receptor-type tyrosine-protein kinase FLT3 (Homo sapiens) (UniProt P36888); test: (§1) Selectivity interaction (KinomeScan (DiscoverX)) EUB0000092b FLT3
[2] = tested on: T1, Receptor-type tyrosine-protein kinase FLT3 (Homo sapiens), P36888 [D835H]; test: as §1
T1 sequence (whole entry): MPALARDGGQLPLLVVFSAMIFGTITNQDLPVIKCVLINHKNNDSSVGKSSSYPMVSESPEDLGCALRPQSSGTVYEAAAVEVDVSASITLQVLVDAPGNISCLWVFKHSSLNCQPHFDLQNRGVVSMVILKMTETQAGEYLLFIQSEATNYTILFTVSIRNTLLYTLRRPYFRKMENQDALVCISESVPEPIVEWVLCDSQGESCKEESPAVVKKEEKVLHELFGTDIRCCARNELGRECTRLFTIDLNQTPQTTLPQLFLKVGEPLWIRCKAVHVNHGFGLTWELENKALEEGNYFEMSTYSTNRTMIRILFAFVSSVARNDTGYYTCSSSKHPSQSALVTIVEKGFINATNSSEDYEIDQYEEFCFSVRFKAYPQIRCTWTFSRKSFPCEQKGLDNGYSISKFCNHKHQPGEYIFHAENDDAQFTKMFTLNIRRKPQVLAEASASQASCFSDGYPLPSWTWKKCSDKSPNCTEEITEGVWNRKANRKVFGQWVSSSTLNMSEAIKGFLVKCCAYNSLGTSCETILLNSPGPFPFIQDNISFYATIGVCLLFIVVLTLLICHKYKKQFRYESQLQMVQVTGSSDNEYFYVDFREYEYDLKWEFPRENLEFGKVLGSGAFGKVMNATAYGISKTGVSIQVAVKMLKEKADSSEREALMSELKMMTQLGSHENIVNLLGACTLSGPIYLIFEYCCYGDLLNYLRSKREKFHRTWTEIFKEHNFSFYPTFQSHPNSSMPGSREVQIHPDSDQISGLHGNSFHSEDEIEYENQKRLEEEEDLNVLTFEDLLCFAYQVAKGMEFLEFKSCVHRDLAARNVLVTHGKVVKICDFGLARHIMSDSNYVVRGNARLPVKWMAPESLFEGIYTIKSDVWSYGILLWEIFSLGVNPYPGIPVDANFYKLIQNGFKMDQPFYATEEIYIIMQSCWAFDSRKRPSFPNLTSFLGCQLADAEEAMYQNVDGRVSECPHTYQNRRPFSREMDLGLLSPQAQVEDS

[3] = tested on: T2, Receptor-type tyrosine-protein kinase FLT3 (Homo sapiens), P36888 [D835Y]; test: as §1
T2 sequence (whole entry): T1 sequence (whole entry) with H835Y

[4] = tested on: T3, Receptor-type tyrosine-protein kinase FLT3 (Homo sapiens), P36888 [K663Q]; test: as §1
T3 sequence (whole entry): T1 sequence (whole entry) with K663Q, H835D

[5] = tested on: Receptor-type tyrosine-protein kinase FLT3 (Homo sapiens), P36888 [UNDEFINED MUTATION]; test: as §1

CCC(=O)N1CCN(c2ccc(-n3c(=O)ccc4cnc5ccc(-c6cnc7ccccc7c6)cc5c43)cc2C(F)(F)F)CC1
% of control [1]: 16%
% of control [2]: 18%
% of control [3]: 16%
% of control [4]: 23%
% of control [5]: 29%
